Experimental data as given in article PMC8914530 (Data in Brief, 2022).
Read-outs that look alike come from different tables or passages of the source.

Legend:
[1] = target: T1, CYP2B6 (Homo sapiens, UniProt P20813); assay: CYP2B6 Vivid CYP450 Blue fluorescent inhibition assay; type: biochemical; details: for CYP2B6 Hillslope: variable slope sigmoidal fit, GraphPad Prism 7.0; for IC50 Ratio: ratio of the IC50 values from the two CYPs, + indicates greater affinity for CYP2B6, – greater affinity for CYP3A4
T1 sequence (P20813 1-491): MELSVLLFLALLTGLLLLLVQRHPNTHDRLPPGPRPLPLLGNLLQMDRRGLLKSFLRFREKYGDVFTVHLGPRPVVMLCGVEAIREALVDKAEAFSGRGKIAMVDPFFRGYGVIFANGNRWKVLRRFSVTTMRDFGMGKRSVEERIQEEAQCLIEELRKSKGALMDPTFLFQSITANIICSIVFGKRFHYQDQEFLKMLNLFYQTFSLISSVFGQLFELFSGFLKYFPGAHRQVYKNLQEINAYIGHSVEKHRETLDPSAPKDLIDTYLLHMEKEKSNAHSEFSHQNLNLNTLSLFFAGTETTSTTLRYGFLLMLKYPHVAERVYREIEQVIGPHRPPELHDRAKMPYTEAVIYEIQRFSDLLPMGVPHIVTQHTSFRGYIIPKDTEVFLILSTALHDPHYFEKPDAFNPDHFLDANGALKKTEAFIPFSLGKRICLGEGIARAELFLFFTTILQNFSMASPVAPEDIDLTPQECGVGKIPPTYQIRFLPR

[2] = target: CYP3A4 (Homo sapiens, UniProt P08684); assay: CYP3A4 Vivid CYP450 Red fluorescent inhibition assay; type: biochemical; details: for CYP3A4 Hillslope: variable slope sigmoidal fit, GraphPad Prism 7.0
CYP3A4, sequence (P08684 whole entry): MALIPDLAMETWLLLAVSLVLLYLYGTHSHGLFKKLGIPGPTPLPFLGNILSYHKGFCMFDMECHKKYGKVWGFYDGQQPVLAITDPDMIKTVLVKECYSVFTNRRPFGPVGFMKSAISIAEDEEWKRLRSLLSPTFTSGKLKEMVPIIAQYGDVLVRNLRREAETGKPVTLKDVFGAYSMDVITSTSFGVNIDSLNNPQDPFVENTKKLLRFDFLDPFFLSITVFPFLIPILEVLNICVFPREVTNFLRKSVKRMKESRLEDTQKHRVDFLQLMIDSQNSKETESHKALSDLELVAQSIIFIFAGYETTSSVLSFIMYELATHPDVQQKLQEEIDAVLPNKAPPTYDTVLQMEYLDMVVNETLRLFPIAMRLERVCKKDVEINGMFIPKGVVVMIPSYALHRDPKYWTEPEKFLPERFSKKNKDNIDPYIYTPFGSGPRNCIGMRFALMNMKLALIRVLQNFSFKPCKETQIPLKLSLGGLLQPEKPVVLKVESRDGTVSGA

Compound | IC50 [1] | CYP2B6 Hillslope [1] | IC50 [2] | CYP3A4 Hillslope [2] | IC50 Ratio [1] | IC50 ([2]; read-out: CYP3A4 IC50, CYP3A4-transfected baculosomes, concentration-response, n = 3–12)
CCCCC/C=C\C/C=C\C/C=C\C/C=C\CCCC(=O)O [Arachidonic acid] | 1.04 µM | −0.59 | 13.7 µM | −4.08 | – | –
CCNc1nc(Cl)nc(NC(C)C)n1 [Atrazine] | 0.144 µM | −0.34 | – | – | – | –
CC(C)(c1ccc(O)cc1)c1ccc(O)cc1 [Bisphenol A] | 8.44 µM | −2.65 | – | – | – | –
C[C@H](CCC(=O)O)[C@H]1CC[C@H]2[C@@H]3[C@H](O)C[C@@H]4C[C@H](O)CC[C@]4(C)[C@H]3CC[C@]12C [Chenodeoxycholic acid] | 49 µM | −1.32 | – | – | – | –
CCOP(=S)(OCC)Oc1nc(Cl)c(Cl)cc1Cl [Chlorpyrifos] | 0.0092 µM | −2.09 | 0.28 µM | – | +30.4 | –
CC1(C)C(C=C(Cl)Cl)C1C(=O)OC(C#N)c1cccc(Oc2ccccc2)c1 (stereo not drawn) [Cypermethrin] | 6040 µM | −0.79 | – | – | – | –
CCOP(=S)(OCC)Oc1cc(C)nc(C(C)C)n1 [Diazinon] | 0.0754 µM | −1.51 | – | −2.52 | – | –
CC/C=C\C/C=C\C/C=C\C/C=C\C/C=C\C/C=C\CCC(=O)O [Docosahexaenoic acid] | 2.06 µM | −1.22 | 5.08 µM | −5.0 | – | –
O=S1OCC2C(CO1)C1(Cl)C(Cl)=C(Cl)C2(Cl)C1(Cl)Cl (stereo not drawn) [Endosulfan] | 0.003 µM | −0.66 | 0.0046 µM | −0.261 | – | –
C[C@]12CC[C@@H]3c4ccc(O)cc4CC[C@H]3[C@@H]1CC[C@@H]2O [Estradiol] | 42.2 µM | −0.33 | 2.78 µM | −0.903 | – | –
CCCCC/C=C\C/C=C\CCCCCCCC(=O)O [Linoleic acid] | 9.19 µM | −0.69 | 18.3 µM | −4.46 | – | –
C[C@H](CCC(=O)O)[C@H]1CC[C@H]2[C@@H]3CC[C@@H]4C[C@H](O)CC[C@]4(C)[C@H]3CC[C@]12C [Lithocholic acid] | 2.47 µM | −0.51 | – | – | – | –
CCCCCCCC/C=C\CCCCCCCC(=O)O [Oleic acid] | 9.3 µM | −2.45 | – | – | – | –
CCCCCCCCCCCCCCCC(=O)O [Palmitic acid] | – | – | 19900 µM | – | – | –
CCOP(=S)(OCC)Oc1ccc([N+](=O)[O-])cc1 [Parathion] | 0.026 µM | −1.13 | 0.729 µM | −0.094 | +28.03 | –
O=C(O)c1ccccc1C(=O)O [Phthalic acid] | 1170 µM | −1.71 | – | – | – | –
C[C@]12CC[C@H]3[C@@H](CCC4=CC(=O)CC[C@@]43C)[C@@H]1CC[C@@H]2O [Testosterone] | 90.2 µM | −0.32 | – | – | – | –
Clc1ccccc1CN1CCc2sccc2C1 [Ticlopidine, reference compound] | – | −0.95 | – | – | – | –
Oc1cc(Cl)ccc1Oc1ccc(Cl)cc1Cl [Triclosan] | 0.944 µM | −1.30 | – | −1.46 | – | –
CC/C=C\C/C=C\C/C=C\CCCCCCCC(=O)O [α-Linolenic acid] | 7.32 µM | −1.45 | 4.04 µM | −0.701 | – | –
Nonylphenol | – | −1.21 | – | −1.02 | – | 6.25 µM
